Tests used:
Cytochrome P450 1A1 [1] = molecular target: T1, Cytochrome P450 1A1 (Rattus norvegicus, UniProt P00185); assay: Mechanism based inhibition of rat cytochrome P450 CYP1A1; type: ADME
T1 sequence (P00185 whole entry): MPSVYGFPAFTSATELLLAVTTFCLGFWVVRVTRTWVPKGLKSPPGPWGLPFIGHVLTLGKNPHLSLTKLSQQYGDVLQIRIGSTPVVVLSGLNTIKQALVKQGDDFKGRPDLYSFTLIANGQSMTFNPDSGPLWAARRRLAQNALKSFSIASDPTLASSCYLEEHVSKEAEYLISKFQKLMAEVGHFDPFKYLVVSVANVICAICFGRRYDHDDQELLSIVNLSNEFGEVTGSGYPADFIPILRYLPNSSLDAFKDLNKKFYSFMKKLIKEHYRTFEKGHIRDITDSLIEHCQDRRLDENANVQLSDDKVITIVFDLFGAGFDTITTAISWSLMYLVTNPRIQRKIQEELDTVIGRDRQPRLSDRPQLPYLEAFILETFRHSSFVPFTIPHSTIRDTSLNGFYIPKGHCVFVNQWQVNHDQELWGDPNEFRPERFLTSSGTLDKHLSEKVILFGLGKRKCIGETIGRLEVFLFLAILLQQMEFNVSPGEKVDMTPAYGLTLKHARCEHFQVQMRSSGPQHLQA

Cytochrome P450 1A2 [2] = molecular target: T2, Cytochrome P450 1A2 (Homo sapiens, UniProt P05177); assay: Mechanism based inhibition of human cytochrome P450 1A2 measured by 7-ethoxyresorufin O-deethylation (EROD); type: ADME
T2 sequence (P05177 whole entry): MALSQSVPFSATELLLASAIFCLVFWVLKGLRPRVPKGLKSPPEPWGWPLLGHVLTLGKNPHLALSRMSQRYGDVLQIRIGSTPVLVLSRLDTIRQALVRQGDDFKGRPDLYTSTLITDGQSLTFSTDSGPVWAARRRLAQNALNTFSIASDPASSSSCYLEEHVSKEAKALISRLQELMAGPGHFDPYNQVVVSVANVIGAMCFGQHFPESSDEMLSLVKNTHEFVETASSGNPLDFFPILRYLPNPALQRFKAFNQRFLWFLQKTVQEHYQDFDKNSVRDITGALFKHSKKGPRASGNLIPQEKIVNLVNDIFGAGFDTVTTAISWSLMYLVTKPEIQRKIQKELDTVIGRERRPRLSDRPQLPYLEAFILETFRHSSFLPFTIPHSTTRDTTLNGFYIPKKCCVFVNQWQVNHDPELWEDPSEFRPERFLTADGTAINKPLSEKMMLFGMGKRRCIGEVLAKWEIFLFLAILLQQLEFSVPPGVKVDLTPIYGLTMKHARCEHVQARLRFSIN

Cytochrome P450 1B1 = molecular target: T3, Cytochrome P450 1B1 (Homo sapiens, UniProt Q16678); assay: Mechanism based inhibition of human cytochrome P450 1B1 measured by 7-ethoxyresorufin O-deethylation (EROD); type: ADME
T3 sequence (Q16678 whole entry): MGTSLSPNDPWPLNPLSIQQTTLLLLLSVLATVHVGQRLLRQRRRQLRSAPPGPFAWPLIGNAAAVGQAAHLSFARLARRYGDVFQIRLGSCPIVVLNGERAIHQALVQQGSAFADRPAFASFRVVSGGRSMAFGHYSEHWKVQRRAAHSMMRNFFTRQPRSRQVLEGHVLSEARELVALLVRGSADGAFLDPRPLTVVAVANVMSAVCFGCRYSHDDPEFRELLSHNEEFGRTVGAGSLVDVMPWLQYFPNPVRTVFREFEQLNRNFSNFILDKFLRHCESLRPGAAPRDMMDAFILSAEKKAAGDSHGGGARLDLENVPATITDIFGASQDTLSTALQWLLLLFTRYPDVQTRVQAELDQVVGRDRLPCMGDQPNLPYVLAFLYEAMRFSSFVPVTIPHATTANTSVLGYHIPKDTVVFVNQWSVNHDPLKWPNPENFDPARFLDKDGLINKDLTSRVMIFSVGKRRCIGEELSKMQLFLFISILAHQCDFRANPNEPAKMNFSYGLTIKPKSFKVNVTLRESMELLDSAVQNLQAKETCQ

Cytochrome P450 1A1 [3] = molecular target: T4, Cytochrome P450 1A1 (Homo sapiens, UniProt P04798); assay: (§1) Mechanism based inhibition of human cytochrome P450 1A1 measured by 7-ethoxyresorufin O-deethylation (EROD); type: ADME
T4 sequence (P04798 whole entry): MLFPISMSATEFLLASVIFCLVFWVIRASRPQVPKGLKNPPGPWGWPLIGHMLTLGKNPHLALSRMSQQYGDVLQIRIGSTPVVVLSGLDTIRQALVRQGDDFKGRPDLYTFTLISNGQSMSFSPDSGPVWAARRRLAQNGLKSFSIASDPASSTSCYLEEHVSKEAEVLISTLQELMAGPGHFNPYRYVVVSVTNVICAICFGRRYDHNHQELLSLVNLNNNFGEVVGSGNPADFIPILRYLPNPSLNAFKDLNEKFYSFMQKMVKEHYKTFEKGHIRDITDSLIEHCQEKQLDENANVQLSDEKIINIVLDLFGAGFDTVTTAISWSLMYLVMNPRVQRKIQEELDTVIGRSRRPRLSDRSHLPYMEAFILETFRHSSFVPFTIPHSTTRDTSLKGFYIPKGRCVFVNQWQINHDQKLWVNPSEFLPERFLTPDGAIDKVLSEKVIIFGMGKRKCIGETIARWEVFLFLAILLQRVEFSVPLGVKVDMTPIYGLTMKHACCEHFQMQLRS

CYP1A1 [4] = molecular target: CYP1A1 (Homo sapiens, UniProt P04798); assay: as §1; type: ADME; settings: human, probe 7-ethoxyresorufin (O-deethylation, EROD)
CYP1A2 = molecular target: T5, CYP1A2 (Homo sapiens, UniProt P05177); assay: (§2) Mechanism based inhibition of human cytochrome P450 1A2 measured by 7-methoxyresorufin O-demethylation (MROD); type: ADME; settings: human, probe 7-methoxyresorufin (O-demethylation, MROD)
T5 sequence (P05177 whole entry): T2 sequence (P05177 whole entry)

Cytochrome P450 1A2 [5] = molecular target: T2, Cytochrome P450 1A2; assay: as §2; type: ADME
CYP2B1 [6] = molecular target: T6, CYP2B1 (Rattus norvegicus, UniProt P00176); assay: (§3) Mechanism based inhibition of rat cytochrome P450 CYP2B1 measured by 7-ethoxycoumarin O-deethylase activity; type: ADME; settings: rat, probe 7-ethoxycoumarin (O-deethylase activity)
T6 sequence (P00176 whole entry): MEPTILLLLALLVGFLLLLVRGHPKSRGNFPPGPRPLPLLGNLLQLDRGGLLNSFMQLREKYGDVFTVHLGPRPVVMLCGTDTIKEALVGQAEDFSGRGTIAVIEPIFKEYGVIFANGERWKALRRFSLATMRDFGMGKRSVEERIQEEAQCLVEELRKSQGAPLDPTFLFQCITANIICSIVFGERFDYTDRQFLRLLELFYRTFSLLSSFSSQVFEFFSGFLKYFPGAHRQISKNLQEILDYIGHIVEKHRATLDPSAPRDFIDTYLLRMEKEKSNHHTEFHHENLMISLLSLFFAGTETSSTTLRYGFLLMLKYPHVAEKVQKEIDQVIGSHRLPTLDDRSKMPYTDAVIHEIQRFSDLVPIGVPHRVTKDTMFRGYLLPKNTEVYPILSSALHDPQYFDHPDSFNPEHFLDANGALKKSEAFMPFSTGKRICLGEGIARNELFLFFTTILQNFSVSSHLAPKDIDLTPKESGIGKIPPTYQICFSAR

Cytochrome P450 2B1 [7] = molecular target: T7, Cytochrome P450 2B1 (Rattus norvegicus, UniProt P00176); assay: as §3; type: ADME
T7 sequence (P00176 whole entry): T6 sequence (P00176 whole entry)

CYP2B1 [8] = molecular target: T6, CYP2B1; assay: (§4) Mechanism based inhibition of rat cytochrome P450 CYP2B1; type: ADME; settings: rat
Cytochrome P450 2B1 [9] = molecular target: T7, Cytochrome P450 2B1; assay: as §4; type: ADME
CYP2B4 = molecular target: T8, CYP2B4 (Oryctolagus cuniculus, UniProt P00178); assay: (§5) Mechanism based inhibition of rabbit cytochrome P450 CYP2B4; type: ADME; settings: rabbit
T8 sequence (P00178 whole entry): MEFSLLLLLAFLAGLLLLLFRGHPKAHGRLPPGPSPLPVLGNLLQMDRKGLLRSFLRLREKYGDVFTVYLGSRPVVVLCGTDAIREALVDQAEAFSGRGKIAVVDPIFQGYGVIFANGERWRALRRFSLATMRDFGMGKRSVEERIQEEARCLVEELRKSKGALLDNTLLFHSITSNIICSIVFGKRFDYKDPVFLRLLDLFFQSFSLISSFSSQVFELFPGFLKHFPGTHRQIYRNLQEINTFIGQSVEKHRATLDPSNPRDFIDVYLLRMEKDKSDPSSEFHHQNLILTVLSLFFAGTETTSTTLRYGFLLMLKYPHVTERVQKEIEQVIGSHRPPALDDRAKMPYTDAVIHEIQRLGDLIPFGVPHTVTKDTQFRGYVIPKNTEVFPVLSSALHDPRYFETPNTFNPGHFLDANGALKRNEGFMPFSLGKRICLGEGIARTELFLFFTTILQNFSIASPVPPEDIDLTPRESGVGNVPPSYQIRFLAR

Cytochrome P450 2B4 = molecular target: T9, Cytochrome P450 2B4 (Oryctolagus cuniculus, UniProt P00178); assay: as §5; type: ADME
T9 sequence (P00178 whole entry): T8 sequence (P00178 whole entry)

Cytochrome P450 2B10 = Cytochrome P450 2B10 (Mus musculus, UniProt P12791); assay: Mechanism based inhibition of mouse cytochrome P450 CYP2B10; type: ADME
Chain of Cytochrome P450 2B10 (P12791 whole entry): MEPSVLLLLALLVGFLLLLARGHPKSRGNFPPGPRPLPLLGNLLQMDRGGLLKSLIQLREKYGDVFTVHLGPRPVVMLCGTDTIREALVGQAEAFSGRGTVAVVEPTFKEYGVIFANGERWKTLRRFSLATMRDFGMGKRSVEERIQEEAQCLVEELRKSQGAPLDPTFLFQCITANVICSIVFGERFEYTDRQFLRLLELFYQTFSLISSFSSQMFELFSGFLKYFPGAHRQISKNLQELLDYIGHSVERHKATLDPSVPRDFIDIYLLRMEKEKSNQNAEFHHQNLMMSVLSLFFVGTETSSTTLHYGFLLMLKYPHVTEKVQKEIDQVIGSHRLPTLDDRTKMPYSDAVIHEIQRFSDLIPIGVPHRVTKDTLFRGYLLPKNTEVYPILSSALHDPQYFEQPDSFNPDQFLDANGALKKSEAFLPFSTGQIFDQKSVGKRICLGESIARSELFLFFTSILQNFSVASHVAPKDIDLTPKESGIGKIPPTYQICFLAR

CYP1A1 [10] = molecular target: T10, CYP1A1 (Rattus norvegicus, UniProt P00185); assay: (§6) Mechanism based inhibition of rat cytochrome P450 CYP1A1 measured by ethoxyresorufin O-deethylation warfarin R-6 and R-8 hydroxylation; type: ADME; settings: rat
T10 sequence (P00185 whole entry): T1 sequence (P00185 whole entry)

Cytochrome P450 1A1 [11] = molecular target: T1, Cytochrome P450 1A1; assay: as §6; type: ADME
Cytochrome P450 2E1 [12] = molecular target: T11, Cytochrome P450 2E1 (Rattus norvegicus, UniProt P05182); assay: Mechanism based inhibition of rat cytochrome P450 CYP2E1; type: ADME
T11 sequence (P05182 whole entry): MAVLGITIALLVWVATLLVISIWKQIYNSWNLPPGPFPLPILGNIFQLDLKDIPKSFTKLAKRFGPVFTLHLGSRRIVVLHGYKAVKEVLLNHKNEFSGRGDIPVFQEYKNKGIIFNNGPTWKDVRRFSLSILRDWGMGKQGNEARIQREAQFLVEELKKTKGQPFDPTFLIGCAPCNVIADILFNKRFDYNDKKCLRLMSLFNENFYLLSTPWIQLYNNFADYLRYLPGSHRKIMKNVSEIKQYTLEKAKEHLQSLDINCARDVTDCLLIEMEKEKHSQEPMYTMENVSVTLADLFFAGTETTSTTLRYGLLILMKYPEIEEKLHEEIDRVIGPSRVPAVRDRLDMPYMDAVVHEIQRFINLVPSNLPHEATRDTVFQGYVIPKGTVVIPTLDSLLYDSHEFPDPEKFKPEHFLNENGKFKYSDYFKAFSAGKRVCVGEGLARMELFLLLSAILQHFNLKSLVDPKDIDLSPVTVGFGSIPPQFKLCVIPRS

Cytochrome P450 2E1 [13] = molecular target: T11, Cytochrome P450 2E1; assay: Mechanism based inhibition of rabbit cytochrome P450 CYP2E1 measured by P-nitrophenol (PNP) hydroxylase activity; type: ADME, Oryctolagus cuniculus; settings: target entry is the homologue from another species

CC#Cc1ccc(-c2ccccc2)cc1
mechanism based inhibition (Cytochrome P450 1A1 [1]): Cytochrome P450 mechanistic inhibitor: PMID 9074808
mechanism based inhibition (Cytochrome P450 1A2 [2]): Cytochrome P450 mechanistic inhibitor: PMID 9760279
mechanism based inhibition (Cytochrome P450 1B1): Cytochrome P450 mechanistic inhibitor: PMID 9760279
Ki (Cytochrome P450 1A1 [3]): 220 nM
mechanism based inhibition (Cytochrome P450 1A1 [3]): Cytochrome P450 mechanistic inhibitor: PMID 9760279
kinact (CYP1A1 [4]): 0.00667 s⁻¹
kinact (CYP1A2): 0.00167 s⁻¹
Ki (Cytochrome P450 1A2 [5]): 13 nM

C#Cc1ccc2ccccc2c1
mechanism based inhibition (Cytochrome P450 1A2 [2]): Cytochrome P450 mechanistic inhibitor: PMID 9760279
mechanism based inhibition (Cytochrome P450 1B1): Cytochrome P450 mechanistic inhibitor: PMID 9760279
mechanism based inhibition (Cytochrome P450 1A1 [3]): Cytochrome P450 mechanistic inhibitor: PMID 9760279
kinact (CYP2B1 [6]): 0.0138 s⁻¹
Ki (Cytochrome P450 2B1 [7]): 80 nM

Cn1c2ccccc2c2ccccc21
kinact (CYP2B1 [8]): 0.0233 s⁻¹
Ki (Cytochrome P450 2B1 [9]): 5200 nM
kinact (CYP2B4): 0.0035 s⁻¹
Ki (Cytochrome P450 2B4): 23000 nM

Cc1c(N)c(C)c([N+](=O)[O-])c(C(C)(C)C)c1[N+](=O)[O-]
mechanism based inhibition (Cytochrome P450 2B10): Cytochrome P450 mechanistic inhibitor: PMID 9172959

O=C(NCCc1ccc([N+](=O)[O-])cc1)C(Cl)Cl
kinact (CYP1A1 [10]): 0.00867 s⁻¹
Ki (Cytochrome P450 1A1 [11]): 2700 nM

CC(C)(C)N=C=S
mechanism based inhibition (Cytochrome P450 2E1 [12]): Cytochrome P450 mechanistic inhibitor: PMID 9778311
mechanism based inhibition (Cytochrome P450 2E1 [13]): Cytochrome P450 mechanistic inhibitor: PMID 9778311
